Experimental findings from ChEMBL document CHEMBL1201862, “PubChem BioAssay data set” (2004) are described below.

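1) Cells in 96-well plates. 2) Compound, 48 h, 5 concentrations. 3) Linear interpolation between surrounding doses. 4) Unreached endpoint = highest concentration. At the GI50, growth is halved.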 Active and inactive are the calls of the source. Cut-off read from the data, not from the text of the source: active = GI50 up to about 1.1 µM and inactive = higher.

Test systems include A498; 786-0; SK-MEL-2; RPMI-8226; PC-3; OVCAR-5; SF-295; IGROV-1; DU-145; K562; NCI/ADR-RES; MDA-MB-231; KM12; U-251; UO-31; SK-OV-3; MDA-MB-435; HCT-15; CCRF-CEM; Hs-578T.
Common to all, as to test: NCI-60 cell line screen, 48 h

`CC1=CSC(O)(c2ccc(Cl)cc2)c2noc(=O)n21` (centres undefined): the GI50 with A498 is > 100 µM (inactive); in the assay with 786-0, > 100 µM (inactive); in the assay on SK-MEL-2, 85.9 µM (inactive); in the assay on RPMI-8226 it was 57.7 µM (inactive); in the assay with PC-3 it was 71.1 µM (inactive); in the assay on OVCAR-5 it was > 100 µM (inactive). Moreover, the GI50 is > 100 µM (inactive) with SF-295; > 100 µM (inactive) in the assay with IGROV-1; > 100 µM (inactive) in the assay on DU-145; 61.1 µM (inactive) with K562; 53.7 µM (inactive) with NCI/ADR-RES; > 100 µM (inactive) in the assay on MDA-MB-231. Moreover, the GI50 is > 100 µM (inactive) with KM12; > 10 µM (inactive) in the assay on U-251; 58.1 µM (inactive) with UO-31; > 100 µM (inactive) with SK-OV-3; 30.1 µM (inactive) in the assay with MDA-MB-435; 72.9 µM in the assay on HCT-15.
Take `CC1=NN(c2cccc(Cl)c2)C(=N/c2nc3ccccc3s2)/C1=C\C=C\c1ccccc1`: the GI50 in the assay on A498 was 24.7 µM (inactive); with 786-0, 41.4 µM (inactive); with RPMI-8226, 18.9 µM (inactive); in the assay with OVCAR-5, 46.5 µM (inactive); in the assay on CCRF-CEM it was 1.77 µM (inactive); with SF-295, 33.5 µM (inactive). Also, the GI50 in the assay on IGROV-1 was 20 µM (inactive); in the assay on DU-145, 50.4 µM (inactive); in the assay on K562 it was 9.23 µM (inactive); in the assay with NCI/ADR-RES, 59.2 µM (inactive); in the assay on KM12, 34.2 µM (inactive); in the assay with Hs-578T, 24.3 µM (inactive). The GI50 in the assay with UO-31 was 28.4 µM (inactive); with SK-OV-3, 34.6 µM (inactive); in the assay with MDA-MB-435, 33.8 µM (inactive); in the assay on HCT-15 it was 32.2 µM.
Take `CN1C/C(=C\c2ccccc2)C2=NN(C(N)=S)[C@H](c3ccccc3)[C@@H]2C1`: the GI50 was > 100 µM (inactive) in the assay on A498; 64 µM (inactive) with 786-0; > 100 µM (inactive) in the assay on SK-MEL-2; 0.276 µM (active) in the assay on RPMI-8226; > 100 µM (inactive) in the assay with OVCAR-5; 45.6 µM (inactive) in the assay on CCRF-CEM. For the same compound, the GI50 was 87.9 µM (inactive) in the assay on SF-295; > 100 µM (inactive) in the assay with IGROV-1; 36 µM (inactive) in the assay on K562; 54 µM (inactive) with KM12; > 100 µM (inactive) in the assay with U-251; 36.9 µM (inactive) in the assay with UO-31. Also, the figures for the GI50 in the assay with SK-OV-3 and in the assay on HCT-15 were > 100 µM (inactive) and > 100 µM, respectively.
Turning to `Cn1c(=O)oc2cc(C(=O)CN3CCN(Cc4ccc5c(c4)OCO5)CC3)c(Cl)cc21`, the GI50 in the assay on 786-0, in the assay on SK-MEL-2, in the assay with RPMI-8226, in the assay on PC-3, in the assay with OVCAR-5 and in the assay with CCRF-CEM was > 100 µM (inactive) each time. Moreover, the GI50 in the assay on SF-295, in the assay on IGROV-1, in the assay on DU-145, in the assay on K562, in the assay with NCI/ADR-RES and in the assay on MDA-MB-231 was > 100 µM (inactive) throughout. In addition, the GI50 is > 100 µM (inactive) with Hs-578T; > 100 µM (inactive) with U-251; 94 µM (inactive) in the assay on UO-31; > 100 µM (inactive) with SK-OV-3; > 100 µM with HCT-15.
Turning to `Cc1cccc(C)c1NC(=O)CCC(=O)CC(=O)C(C)C`, the GI50 with A498, in the assay on 786-0, in the assay on SK-MEL-2, in the assay with RPMI-8226, in the assay on OVCAR-5 and in the assay on CCRF-CEM was > 100 µM (inactive) throughout. Moreover, the GI50 in the assay on SF-295, in the assay on IGROV-1, in the assay with K562, in the assay with KM12, with U-251 and with UO-31 was > 100 µM (inactive) each time. The figures for the GI50 in the assay on SK-OV-3 and in the assay on HCT-15 were > 100 µM (inactive) and > 100 µM, respectively.
Take `Cn1c(=O)n2n(c1=O)[C@@H](c1ccccc1)[C@H]2c1ccccc1`: the GI50 in the assay with A498, in the assay on 786-0, with SK-MEL-2, in the assay with PC-3, with OVCAR-5 and in the assay on CCRF-CEM was > 100 µM (inactive) throughout. The GI50 in the assay on SF-295 was > 100 µM (inactive); in the assay with IGROV-1, > 100 µM (inactive); with K562 it was 64.3 µM (inactive); in the assay on NCI/ADR-RES, > 100 µM (inactive); in the assay with MDA-MB-231 it was > 100 µM (inactive); with KM12, > 100 µM (inactive). Moreover, the GI50 with Hs-578T is > 100 µM (inactive); in the assay on U-251, > 100 µM (inactive); with UO-31 it was > 100 µM (inactive); with SK-OV-3, > 100 µM (inactive); in the assay on HCT-15, > 100 µM.
Consider `CC(C)(C)OC(=O)N1CCCC1=O`, for which the GI50 with A498, with 786-0, in the assay with SK-MEL-2, in the assay on RPMI-8226, with PC-3 and in the assay on OVCAR-5 was > 10 µM (inactive) in each case. Besides, the GI50 in the assay on CCRF-CEM, with SF-295, in the assay on IGROV-1, with DU-145, in the assay on K562 and in the assay with MDA-MB-231 was > 10 µM (inactive) each time. Further, the GI50 in the assay with KM12, in the assay on Hs-578T, in the assay with U-251, in the assay on UO-31, with SK-OV-3 and in the assay on MDA-MB-435 was > 10 µM (inactive) in each case. In addition, the GI50 with HCT-15 is > 10 µM.
In the case of `COc1cccc(C2c3cc4c(cc3OC(N3CCCC3)C2c2ccccc2)OCO4)c1O` (centres undefined), the GI50 was 8.32 µM (inactive) with 786-0; 12.1 µM (inactive) in the assay on SK-MEL-2; 5.69 µM (inactive) with RPMI-8226; 8.28 µM (inactive) with PC-3; 25.2 µM (inactive) with OVCAR-5; 5.13 µM (inactive) in the assay with CCRF-CEM. The GI50 was 3.74 µM (inactive) in the assay with SF-295; 7.59 µM (inactive) in the assay with IGROV-1; 11.9 µM (inactive) in the assay with DU-145; 5.35 µM (inactive) in the assay on K562; 9.91 µM (inactive) in the assay with NCI/ADR-RES; 2.76 µM (inactive) in the assay on KM12. In addition, the GI50 with Hs-578T is 0.279 µM (active); with UO-31, 3.46 µM (inactive); with MDA-MB-435, 6.59 µM (inactive); with HCT-15 it was 6 µM.
As to `COc1ccc(C2=Cc3nc2c(-c2ccccc2)c2ccc([nH]2)c(-c2ccccc2)c2nc(c(-c4ccccc4)c4ccc([nH]4)c3-c3ccccc3)C=C2)cc1`, the GI50 with A498, with 786-0, in the assay on SK-MEL-2, with PC-3, in the assay on OVCAR-5 and in the assay with CCRF-CEM was > 100 µM (inactive) in each case. For the same compound, the GI50 in the assay on SF-295, in the assay with IGROV-1, in the assay with DU-145, in the assay on K562, in the assay with MDA-MB-231 and in the assay on KM12 was > 100 µM (inactive) each time. The GI50 in the assay with Hs-578T was > 100 µM (inactive); in the assay on U-251 it was 30.5 µM (inactive); in the assay on UO-31, > 100 µM (inactive); in the assay with SK-OV-3, > 100 µM (inactive); with MDA-MB-435, > 100 µM (inactive); with HCT-15, > 100 µM.
Consider `C[N+](C)(C)CC(=O)N/N=C(\CCC(=O)NCCc1ccccc1)CC(=O)c1ccccc1`, for which the GI50 with A498, with 786-0, in the assay on SK-MEL-2, in the assay on RPMI-8226, in the assay with OVCAR-5 and with CCRF-CEM was > 100 µM (inactive) in each case. Further, the GI50 in the assay with SF-295, in the assay with IGROV-1, in the assay with K562, with KM12, in the assay with U-251 and in the assay on UO-31 was > 100 µM (inactive) throughout. Further, the GI50 with SK-OV-3 was > 100 µM (inactive); in the assay on HCT-15, > 100 µM.
Consider `O=c1ccn([C@@H]2C[C@@H]2CO)c(=O)[nH]1`, for which the GI50 in the assay with A498, with 786-0, with SK-MEL-2, with RPMI-8226, in the assay on PC-3 and in the assay on OVCAR-5 was > 100 µM (inactive) in each case. The GI50 in the assay on CCRF-CEM, with IGROV-1, in the assay with DU-145, in the assay on K562, in the assay on NCI/ADR-RES and in the assay on KM12 was > 100 µM (inactive) throughout. Also, the GI50 in the assay with Hs-578T is > 100 µM (inactive); in the assay on U-251, > 100 µM (inactive); in the assay with UO-31, > 100 µM (inactive); with MDA-MB-435 it was > 100 µM (inactive); in the assay with HCT-15 it was > 100 µM.
In the case of `CCOC12OC3=C(CC1CC1=C(CCC1=O)O2)C(=O)CC3` (centres undefined), the GI50 with A498, in the assay on 786-0, with SK-MEL-2, in the assay on RPMI-8226, in the assay on OVCAR-5 and in the assay on CCRF-CEM was > 100 µM (inactive) throughout. Further, the GI50 with SF-295, with IGROV-1, with K562, with KM12, in the assay on U-251 and with UO-31 was > 100 µM (inactive) in each case. Further, the GI50 in the assay on SK-OV-3 is > 100 µM (inactive); with HCT-15, > 100 µM.
